Source: patent US20050244335A1, “Methods and compositions related to increasing antitumor activity of chemotherapeutic agents” (priority 2004, published 2005)

Key:
[1] = Pharmacokinetics and tissue distribution of carboplatin in CD-1 mice; type: in vivo; conditions: carboplatin 60 mg/kg iv
Experimental: Pharmacokinetic studies were carried out using a protocol similar to that previously described (Wang, 1999) using metabolism cages. Male CD-1 mice were pre-treated with DEX (s.c., 0.1 mg/day/mouse for 5 days) or saline (as controls), and, at 1 hr after the fifth dose of DEX, were given a single intravenously (i.v.) bolus administration of carboplatin (60 mg/kg) via a tail vein. At various times (5, 15, and 30 min, 1, 2, 4, 8, and 24 hr after drug dosing; 3 animals for each time point)), blood samples were collected in heparinized tubes and tissue samples removed. Plasma was separated by centrifugation at 20,000 g for 5 min. Tissues including liver, kidneys and spleen were immediately blotted on Whatman No. 1 filter paper, trimmed of extraneous fat or connective tissue, weighed, and homogenized in 0.9% NaCl physiological saline (5 mL per g of wet tissue weight). The resultant homogenates were stored at −70° C. until further analysis. Bone marrow cells were harvested by flushing the femurs with sterile physiological saline as reported previously (Zhang, 1993). The resultant bone marrow cell suspension was weighed and lysed by sonicating 5 times for periods of 10 sec. Following centrifugation at 20,000 g for 30 min, the supernatant was removed and stored at −70° C. until further analysis.
[…] in biological samples was analyzed by an analytical procedure involving micro-filtration and reversed-phase HPLC (Bullen, 1992). 200 μL of plasma or tissue homogenates or bone marrow suspension was added to the reservoir of a Centrifree™ micropartition system. The latter was capped and centrifuged at 2,000 g for 5 min. All filtrates were transferred into a new micro centrifuge tube and 6 μL of the filtrates was injected onto the HPLC column. The HPLC system consisted of a Hewlett Packard 1050 ChemStation with a UV detector (Agilent 1050 series). Determination of Carboplatin was achieved using a LiChrosorb™ diol (10 μm, 250×4.6 mm) analytical column with a LiChroCART 100 RP-18 guard column. The mobile phase for plasma was composed of 98:2 acetonitrile: H2O (vol/vol) and 89:11 acetonitrile: 0.015% H3PO4 (vol/vol) for urine and tissue samples. The flow rates were 2 mL/min (for plasma) and 1.1 mL/min (for urine and tissue samples). The column elute was monitored by UV at 229 nm. Quantitation of plasma or tissue carboplatin was carried out by using an external standard curve (0-4,000.0 μg/mL) that was freshly prepared daily. Linear regression and correlation analysis were carried out to establish the standard peak-area/concentration curves for carboplatin.
The significance of the differences among treated groups and controls were analyzed by ANOVA.

[2] = test system: human breast cancer MCF-7 xenografts; test: In vivo chemotherapy, breast cancer MCF-7 xenograft model in nude mice; conditions: MCF-7 model; agent alone
Description: Cell Culture. […] All media contained 1% penicillin-streptomycin.
Data and Statistical Analysis.

Question: What does the source list for `N.N.O=C([O-])C1(C(=O)[O-])CCC1.[Pt+2]` [carboplatin]?
Answer: AUC of carboplatin in spleen, DEX pretreated relative to control mice [1]: approximately 16.5%; carboplatin AUC decrease in bone marrow, DEX pretreated vs control mice [1]: 57.4%; decrease of carboplatin uptake in liver by DEX pretreatment [1]: 40%; AUC ([1]; bone marrow, DEX (+)): 517160 ng·h/mL; CL ([1]; bone marrow, DEX (+)): 0.12 mL/g/h; Cmax ([1]; bone marrow, DEX (+)): 20610 ng/mL; T1/2 ([1]; bone marrow, DEX (+)): 922.8 min; Vss ([1]; bone marrow, DEX (+)): 2.57 mL/g; AUC ([1]; bone marrow, DEX (−)): 901600 ng·h/mL; CL ([1]; bone marrow, DEX (−)): 0.07 mL/g/h; Cmax ([1]; bone marrow, DEX (−)): 20140 ng/mL; T1/2 ([1]; bone marrow, DEX (−)): 1708 min; Vss ([1]; bone marrow, DEX (−)): 2.75 mL/g; AUC ([1]; liver, DEX (+)): 25020 ng·h/mL; CL ([1]; liver, DEX (+)): 2.40 mL/g/h; Cmax ([1]; liver, DEX (+)): 16550 ng/mL; T1/2 ([1]; liver, DEX (+)): 23.4 min; Vss ([1]; liver, DEX (+)): 1.35 mL/g; AUC ([1]; liver, DEX (−)): 38710 ng·h/mL; CL ([1]; liver, DEX (−)): 1.55 mL/g/h; Cmax ([1]; liver, DEX (−)): 25440 ng/mL; T1/2 ([1]; liver, DEX (−)): 23.4 min; Vss ([1]; liver, DEX (−)): 0.87 mL/g; AUC ([1]; plasma, DEX (+)): 42690 ng·h/mL; CL ([1]; plasma, DEX (+)): 1.41 mL/g/h; Cmax ([1]; plasma, DEX (+)): 227580 ng/mL; T1/2 ([1]; plasma, DEX (+)): 7.8 min; Vss ([1]; plasma, DEX (+)): 0.26 mL/g; AUC ([1]; plasma, DEX (−)): 44180 ng·h/mL; CL ([1]; plasma, DEX (−)): 1.36 mL/g/h; Cmax ([1]; plasma, DEX (−)): 352620 ng/mL; T1/2 ([1]; plasma, DEX (−)): 5.4 min; Vss ([1]; plasma, DEX (−)): 0.17 mL/g; AUC ([1]; spleen, DEX (+)): 56720 ng·h/mL; CL ([1]; spleen, DEX (+)): 1.06 mL/g/h; Cmax ([1]; spleen, DEX (+)): 17790 ng/mL; T1/2 ([1]; spleen, DEX (+)): 49.2 min; Vss ([1]; spleen, DEX (+)): 1.25 mL/g; AUC ([1]; spleen, DEX (−)): 344110 ng·h/mL; CL ([1]; spleen, DEX (−)): 0.17 mL/g/h; Cmax ([1]; spleen, DEX (−)): 118730 ng/mL; T1/2 ([1]; spleen, DEX (−)): 45 min; Vss ([1]; spleen, DEX (−)): 0.19 mL/g; effect on tumor growth [2]: limited effects on tumor growth
